Laboratory results taken from patent publication US20030096379A1, “Method for producing tryptamine derivatives” (priority 2001, published 2003).

How the values were obtained:
[1] = biological target: T1, pig kidney aromatic amino acid decarboxylase (pkAAAD) (Sus scrofa, UniProt P80041); assay: Substrate screen for tryptophan decarboxylation, pkAAAD; type: biochemical; design: key: +: a clear ninhydrin-positive spot at the Rf of standard tryptophan derivatives after 16-65 h; (+): a weak spot in the product region; −: no product observed; NR: experiment not run; settings: tryptophan derivative, PLP, pH 7.5, 37° C.
T1 construct: Frozen tissue was partially thawed in lysis buffer, then it was extracted and partially purified; from tissue; host or cells: pig kidney
T1 sequence (P80041 1-486): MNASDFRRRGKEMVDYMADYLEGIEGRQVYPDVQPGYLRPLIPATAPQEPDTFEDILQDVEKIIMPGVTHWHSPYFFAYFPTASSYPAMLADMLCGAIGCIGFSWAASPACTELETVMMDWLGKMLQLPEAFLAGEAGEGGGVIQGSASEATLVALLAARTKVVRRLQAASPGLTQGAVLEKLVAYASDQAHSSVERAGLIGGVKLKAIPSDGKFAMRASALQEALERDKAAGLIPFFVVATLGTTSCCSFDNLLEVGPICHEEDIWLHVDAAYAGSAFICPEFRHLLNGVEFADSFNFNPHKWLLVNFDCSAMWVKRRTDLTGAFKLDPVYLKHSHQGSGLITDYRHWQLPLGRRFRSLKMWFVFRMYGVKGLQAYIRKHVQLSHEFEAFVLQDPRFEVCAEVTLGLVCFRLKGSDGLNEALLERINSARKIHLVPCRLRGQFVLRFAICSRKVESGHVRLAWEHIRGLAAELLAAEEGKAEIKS

[2] = biological target: T2, tryptophan decarboxylase TDC1 (Camptotheca acuminata, UniProt P93082); assay: Substrate screen for tryptophan decarboxylation, TDC1; type: biochemical, C. accuminata; design: key: +: a clear ninhydrin-positive spot at the Rf of standard tryptophan derivatives after 16-65 h; (+): a weak spot in the product region; −: no product observed; NR: experiment not run; settings: tryptophan derivative, PLP, pH 7.5, 37° C.
T2 construct: made in house; host or cells: E. coli DH5α (pKK233 plasmid from C. Nessler)
T2 sequence (P93082 1-502): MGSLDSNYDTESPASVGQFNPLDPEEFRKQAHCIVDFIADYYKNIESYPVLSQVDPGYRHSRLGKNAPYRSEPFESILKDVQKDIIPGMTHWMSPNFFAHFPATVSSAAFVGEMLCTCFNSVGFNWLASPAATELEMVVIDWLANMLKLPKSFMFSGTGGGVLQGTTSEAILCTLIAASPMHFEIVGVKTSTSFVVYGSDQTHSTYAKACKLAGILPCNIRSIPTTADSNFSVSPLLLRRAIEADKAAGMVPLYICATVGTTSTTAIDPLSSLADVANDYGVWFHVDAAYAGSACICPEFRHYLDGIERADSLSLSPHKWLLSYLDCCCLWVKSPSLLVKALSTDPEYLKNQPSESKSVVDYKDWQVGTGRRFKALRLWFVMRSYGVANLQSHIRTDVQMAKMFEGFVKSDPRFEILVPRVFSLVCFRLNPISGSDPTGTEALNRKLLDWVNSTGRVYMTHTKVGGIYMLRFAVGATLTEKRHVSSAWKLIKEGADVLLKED
Procedure: (§1) A mixture containing 1 μmole of the tryptophan derivative, 0.05 μmole of PLP and 50 μmol of L-serine in 40 mM pH 7.5 KPi buffer was warmed to 37° C., then enzyme solution was added to give a final volume of 1 mL. Aliquots (100 HL) were quenched at intervals and were evaporated in a Savant Speed-vac as in Example 6. For TLC analysis, CH2Cl2/EtOH/H2O/HOAc 49:49:1:1 was used as the solvent. The plates were visualized with short-wave UV light and ninhydrin as in Example 6.
(§2) HPLC techniques were used to monitor the decarboxylation of substituted tryptophans. Mass spectral analysis of the collected HPLC peaks was used to confirm the identity of several tryptamine derivatives, as shown in Table 5.

[3] = biological target: T3, tryptophan decarboxylase TDC2 (Camptotheca acuminata, UniProt P93083); assay: Substrate screen for tryptophan decarboxylation, TDC2; type: biochemical, C. accuminata; design: key: +: a clear ninhydrin-positive spot at the Rf of standard tryptophan derivatives after 16-65 h; (+): a weak spot in the product region; −: no product observed; NR: experiment not run; settings: tryptophan derivative, PLP, pH 7.5, 37° C.
T3 construct: made in house; host or cells: E. coli DH5α (pKK233 plasmid from C. Nessler)
T3 sequence (P93083 1-498): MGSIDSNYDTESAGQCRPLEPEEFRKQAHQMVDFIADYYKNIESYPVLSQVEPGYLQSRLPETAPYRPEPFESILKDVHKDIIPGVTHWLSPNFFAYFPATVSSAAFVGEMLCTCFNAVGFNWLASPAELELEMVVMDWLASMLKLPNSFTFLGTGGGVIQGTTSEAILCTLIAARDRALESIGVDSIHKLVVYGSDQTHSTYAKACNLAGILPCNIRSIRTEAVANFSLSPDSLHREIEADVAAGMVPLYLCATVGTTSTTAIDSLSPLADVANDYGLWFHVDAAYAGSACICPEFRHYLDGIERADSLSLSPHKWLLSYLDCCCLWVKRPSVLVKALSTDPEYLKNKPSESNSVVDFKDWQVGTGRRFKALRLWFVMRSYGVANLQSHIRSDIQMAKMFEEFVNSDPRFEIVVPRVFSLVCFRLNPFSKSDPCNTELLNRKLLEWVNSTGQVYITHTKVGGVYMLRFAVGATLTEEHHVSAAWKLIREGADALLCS
Procedure: as §1, §2

TDC1 = biological target: T4, TDC1 (Camptotheca acuminata, UniProt P93082); assay: Relative decarboxylation rates by Ehrlich's reagent, TDC1; type: biochemical, C. accuminata
T4 construct: made in house; host or cells: E. coli DH5α (pKK233 plasmid from C. Nessler)
T4 sequence (P93082 1-502): T2 sequence (P93082 1-502)
Procedure: (§3) […] Reaction aliquots were quenched in microcentrifuge capsules containing 50 μL each of 6M HCl to quench the enzyme reaction at 2, 5, and 20 min. Quenched aliquots were heated at 50° C. for 40 min with 750 μL each of Ehrlich's reagent (2:24:74 w/v/v 4-(diethyl)aminobenzaldehyde: conc HCl: ethanol). Absorbance was read at 580-nm and compared with standards of serotonin (10-250 μM) or tryptamine (50 to 2000 μM).
(§4) Relative rates for decarboxylation of L-5-hydroxytryptophan (L-5-HOtrp) and L-tryptophan were determined for TDC1 and TDC2 by use of Ehrlich's reagent, discussed in Example 10.

TDC2 = biological target: T5, TDC2 (Camptotheca acuminata, UniProt P93083); assay: Relative decarboxylation rates by Ehrlich's reagent, TDC2; type: biochemical, C. accuminata
T5 construct: made in house; host or cells: E. coli DH5α (pKK233 plasmid from C. Nessler)
T5 sequence (P93083 1-498): T3 sequence (P93083 1-498)
Procedure: as §3, §4

[4] = biological target: T6, E. coli DH5α tryptophan synthase (TrpBA) (Escherichia coli, UniProt P0A879); type: biochemical; design: key: +: a clear ninhydrin-positive spot at the Rf of standard tryptophan derivatives after 16-65 h; (+): a weak spot in the product region; −: no product observed; NR: experiment not run; settings: indole derivative + L-serine + PLP, 37° C., 16-65 h, ninhydrin
T6 construct: made in house; host or cells: E. coli LMG194 (pBAD) or BL-21 (pET)
T6 sequence (P0A879 whole entry): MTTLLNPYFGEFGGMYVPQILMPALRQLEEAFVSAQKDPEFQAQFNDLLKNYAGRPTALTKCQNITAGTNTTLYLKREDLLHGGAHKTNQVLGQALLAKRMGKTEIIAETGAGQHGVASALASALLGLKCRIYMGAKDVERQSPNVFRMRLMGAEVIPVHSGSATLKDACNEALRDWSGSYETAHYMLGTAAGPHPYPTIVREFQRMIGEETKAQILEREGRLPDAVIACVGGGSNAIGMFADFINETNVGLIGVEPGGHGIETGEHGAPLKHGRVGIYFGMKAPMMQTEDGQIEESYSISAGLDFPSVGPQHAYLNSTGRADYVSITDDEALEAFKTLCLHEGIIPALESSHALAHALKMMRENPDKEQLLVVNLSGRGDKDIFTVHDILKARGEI
T6 sequence (P0A877 whole entry, further chain): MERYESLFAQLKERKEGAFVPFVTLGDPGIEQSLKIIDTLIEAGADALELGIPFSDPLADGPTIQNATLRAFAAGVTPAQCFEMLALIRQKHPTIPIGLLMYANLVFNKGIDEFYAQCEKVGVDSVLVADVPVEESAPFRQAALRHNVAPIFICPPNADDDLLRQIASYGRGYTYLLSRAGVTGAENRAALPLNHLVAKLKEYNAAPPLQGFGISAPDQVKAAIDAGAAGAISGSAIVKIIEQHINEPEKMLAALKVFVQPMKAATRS

tryptophanase (TnA) = biological target: T7, tryptophanase (TnA) (Escherichia coli, UniProt P0A853); type: biochemical, E. coli; design: key: +: a clear ninhydrin-positive spot at the Rf of standard tryptophan derivatives after 16-65 h; (+): a weak spot in the product region; −: no product observed; NR: experiment not run; settings: indole derivative + L-serine + PLP, 37° C., 16-65 h, ninhydrin
T7 construct: made in house; host or cells: E. coli LMG194 (pBAD) or BL-21 (pET)
T7 sequence (P0A853 whole entry): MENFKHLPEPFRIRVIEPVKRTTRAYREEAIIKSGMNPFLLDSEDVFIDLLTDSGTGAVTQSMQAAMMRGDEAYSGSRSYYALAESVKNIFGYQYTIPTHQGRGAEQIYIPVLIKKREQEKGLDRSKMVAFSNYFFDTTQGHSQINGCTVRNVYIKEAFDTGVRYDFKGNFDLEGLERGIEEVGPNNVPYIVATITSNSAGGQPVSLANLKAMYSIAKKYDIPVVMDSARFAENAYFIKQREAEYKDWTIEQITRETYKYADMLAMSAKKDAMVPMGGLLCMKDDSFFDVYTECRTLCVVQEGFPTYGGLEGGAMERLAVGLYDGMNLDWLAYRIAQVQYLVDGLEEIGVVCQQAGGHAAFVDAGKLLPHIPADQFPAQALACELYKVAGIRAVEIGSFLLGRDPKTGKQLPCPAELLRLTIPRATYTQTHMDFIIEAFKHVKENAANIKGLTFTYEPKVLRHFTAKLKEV

TrpBA = biological target: T8, TrpBA (Escherichia coli, UniProt P0A879); assay: Relative rates of tryptophan derivative synthesis by HPLC, TrpBA; type: biochemical, E. coli; settings: initial rate estimated by HPLC, indole = 100%, L-serine
T8 construct: made in house; host or cells: E. coli LMG194 (pBAD) or BL-21 (pET)
T8 sequence (P0A879 whole entry): as the sequence (P0A879 whole entry) above
T8 sequence (P0A877 whole entry, further chain): as the sequence (P0A877 whole entry, further chain) above
Procedure: (§5) Reaction mixtures were prepared as in Example 6 and were incubated at 37° C. Aliquots (100 μL) were removed and quenched by addition of to 300 μL of 0.5 M sodium citrate, pH 3.0 in 10% v/v acetonitrile/water in 2 ml microcentrifuge tubes. Following centrifugation for 10 min at 13,000×g, the supernatants were passed through 0.45μ membrane filters prior to HPLC analysis of 20 μL of filtrate.
(§6) TnA reactions were run with L-serine as the 3-carbon substrate.

TnA = biological target: T9, TnA (Escherichia coli, UniProt P0A853); assay: Relative rates of tryptophan derivative synthesis by HPLC, TnA; type: biochemical, E. coli; settings: initial rate estimated by HPLC, indole = 100%, L-serine as the 3-carbon substrate
T9 construct: made in house; host or cells: E. coli LMG194 (pBAD) or BL-21 (pET)
T9 sequence (P0A853 whole entry): as the sequence (P0A853 whole entry) above
Procedure: as §5, with “Aliquots” for “Reaction mixtures were prepared as in Example 6 and were incubated at 37° C. Aliquots”
as §6

TrpBA and TDC1 = assay: Coupled enzyme synthesis monitored by HPLC; type: biochemical; settings: L-serine, PLP, pH 8.5 phosphate buffer, 37° C.
Procedure: To a solution containing L-serine (25 μmol), pyridoxal phosphate (0.05 μmol) and TrpBA (0.02 to 1.5 units, depending on the substrate), TDC1 (0.2 mL 0.6 units) and KPi buffer (0.05 mmol, pH 7.5) in a volume of 0.8 mL were added […] of 5 mM indole derivative in 20% v/v ethanol/water. The mixture was incubated at 37° C. and aliquots were quenched and analyzed as described for Example 8. In cases where tryptamine and/or tryptophan standards were not available, peaks were collected for mass spectral analysis. Electrospray mass spectral analyses were performed.
Mixtures containing indole, L-serine, PLP and TDC1 were incubated in pH 8.5 phosphate buffer, analyzing aliquots by HPLC, as described in Example 12.
The procedure used in Example 24 was carried out by substituting indole with 2-methylindole, 4-hydroxymethylindole, 5-methoxy-, 5-hydroxymethyl-, 5-methoxycarbonyl, and 5,6-dimethoxyindole.

[5] = Tryptophanase (tryptophan lyase) activity of the enzyme preparation; type: biochemical, E. coli
Procedure: Tryptophan synthase activity was assayed by monitoring the increase in absorbance at 290 nm of a mixture containing serine, indole and PLP (Higgins, W., et al., Biochemistry, 1979, 18, 4827). TnA-catalyzed tryptophan synthesis was also measured by the 290 nm assay, while the tryptophan lyase reaction rate was measured by monitoring the reduction in NADH in reaction mixtures containing L-tryptophan and lactate dehydrogenase, indicating the amount of pyruvate released. Tryptophan decarboxylase was assayed colorimetrically by monitoring the sabsorbance at 580 nm produced by serotonin (AAADs) or tryptamine (TDCs) following treatment of reaction aliquots with Ehrlich's reagent (4-N,N-(dimethyl)aminobenzaldehyde in ethanolic HCl; Nakazawa, H.; Kumagi, H.; Yamada, H. Biochem Biophys. Res. Commun., 1974, 61, 75-82). Serotonin could be detected with approximately 5-fold higher sensitivity by this method as compared with tryptamine. The Ehrlich reagent assay using a microtiter plate format for simultaneous analysis of multiple enzyme samples may also be used. HPLC analysis was performed on acid-quenched reaction aliquots by using a base-deactivated C8 reversed-phase support (Shandon Hypersil BD8). HPLC analysis of acid-quenched aliquots permitted calculation of a rate ratio of 4.5 to 1 for pkAAAD-catalyzed DOPA decarboxylation relative to that of L-5-hydroxytryptophan, in good agreement with the accepted ratio of approximately 5:1. (See Sourkes, T. L. Methods Enzymol., 1987, 142, 170-178, which is incorporated herein by reference.)
Activity is expressed as μmol product formed per minute, TrpBA activity is reported for the reaction: indole+serine−>tryptophan at room temperature as described in the next section. Tryptophanase is reported for the reaction: tryptophan−>indole+pyruvate+NH4^+ at room temperature. The rate of tryptophan synthesis for TrpBA under our assay conditions is approximately 3-fold higher at 37° C.

[6] = pH-rate profiles for tryptophan-metabolizing enzymes; type: biochemical; settings: between pH 7.5 and 9.5, L-serine and indole
Description: Both AAADs TDC1 and TDC2 were active over the entire optimum range shown by TrpBA. These broad activity ranges make it clear that the coupled enzyme process is not limited by pH.

N[C@@H](Cc1c[nH]c2ccccc12)C(=O)O [L-tryptophan]
pkAAAD (decarboxylation substrate screen) [1]: (+)
TDC1 (decarboxylation substrate screen) [2]: +
TDC2 (decarboxylation substrate screen) [3]: +
ratio trp/5HOtrp TDC1 (relative decarboxylation rate) (TDC1; pH 7.5): 15.1
ratio trp/5HOtrp TDC1 (relative decarboxylation rate) (TDC1; pH 8.5): 10.5
ratio trp/5HOtrp TDC1 (relative decarboxylation rate) (TDC1; pH 9.5): 10.3
ratio trp/5HOtrp TDC2 (relative decarboxylation rate) (TDC2; pH 7.5): 64.1
ratio trp/5HOtrp TDC2 (relative decarboxylation rate) (TDC2; pH 8.5): 38.3
ratio trp/5HOtrp TDC2 (relative decarboxylation rate) (TDC2; pH 9.5): 53.6

c1ccc2[nH]ccc2c1 [indole, reference compound]
TrpBA (tryptophan product spot, TLC analysis) [4]: +
TnA (tryptophan product spot, TLC analysis) (tryptophanase (TnA)): +
Relative rate (TrpBA) (TrpBA): 100%
Relative Rate (TnA) (TnA): 100%
formation of tryptophan derivative and tryptamine (HPLC peaks) (TrpBA and TDC1): clearly observable

TnA: E. coli tryptophanase, E.C. 4.1.99.1, cloned and expressed in E. coli
Crude specific activity ([5]; Table 3, TnA): 0.8 units/mg
Crude spec activity ([5]; TnA, tryptophan->indole+pyruvate+NH4+, room temperature): 0.8
Purified specific activity ([5]; TnA, tryptophan->indole+pyruvate+NH4+, room temperature, after DEAE cellulose): 2.0 Units/mg
percent of the maximum rate [6]: ≥ 84%
